{
  "source": "paper PMC9909315",
  "about": "“SY-707, an ALK/FAK/IGF1R inhibitor, suppresses growth and metastasis of breast cancer cells” (Acta Biochimica et Biophysica Sinica, 2022)",
  "key": {"[1]": {"molecular_target": "FAK, Pyk2, LTK, IRK and IGF1R", "assay": "HTRF kinase enzyme assay, summary over several kinases", "assay_type": "biochemical", "settings": "around; span over the named kinases", "procedure": "Homogeneous time-resolved fluorescence (HTRF) assay was performed to analyze kinase enzyme activity and compound potency using HTRF ® KinEASE ^TM-TK kit (Cisbio Bioassays, Shanghai, China). Compound SY-707 was serially diluted by 3 folds from 1 mM stock solution in DMSO, and 4 μL of the diluted solution of the compounds was added to 96 μL of reaction buffer (50 mM HEPES, pH 7.0, 0.1 mM Na 3VO 4, 0.01% BAS, 5 mM MgCl 2, 1 mM DTT), then 2.5 μL of 4× compound solution and 5 μL of 2× kinases solution were added to a 384-well plate (OptiPlate-384; PerkinElmer, Wellesley, USA ). The resulted solutions were briefly mixed, centrifuged and incubated for 5 min. Finally, 2.5 μL of 4× ATP/TK peptide (ATP at K m for each kinase) solution was added to the reaction system to initiate the reaction. The enzymatic reaction was carried out for 60-120 min at 23°C, then terminated by addition of 5 μL of detection solution containing TK antibody-cryptate and 5 μL of Streptravidin-XL-665. The mixture was incubated for additional 1 h at 23°C. The fluorescent signals were measured with an EnVision multilabel plate reader (PerkinElmer). IC 50 values of the compounds were calculated using the GraFit software (Version 6.0) and presented as the mean of three independent experiments performed in duplicate."}, "FAK": {"molecular_target": "FAK (Homo sapiens, UniProt Q05397)", "sequence (Q05397 whole entry)": "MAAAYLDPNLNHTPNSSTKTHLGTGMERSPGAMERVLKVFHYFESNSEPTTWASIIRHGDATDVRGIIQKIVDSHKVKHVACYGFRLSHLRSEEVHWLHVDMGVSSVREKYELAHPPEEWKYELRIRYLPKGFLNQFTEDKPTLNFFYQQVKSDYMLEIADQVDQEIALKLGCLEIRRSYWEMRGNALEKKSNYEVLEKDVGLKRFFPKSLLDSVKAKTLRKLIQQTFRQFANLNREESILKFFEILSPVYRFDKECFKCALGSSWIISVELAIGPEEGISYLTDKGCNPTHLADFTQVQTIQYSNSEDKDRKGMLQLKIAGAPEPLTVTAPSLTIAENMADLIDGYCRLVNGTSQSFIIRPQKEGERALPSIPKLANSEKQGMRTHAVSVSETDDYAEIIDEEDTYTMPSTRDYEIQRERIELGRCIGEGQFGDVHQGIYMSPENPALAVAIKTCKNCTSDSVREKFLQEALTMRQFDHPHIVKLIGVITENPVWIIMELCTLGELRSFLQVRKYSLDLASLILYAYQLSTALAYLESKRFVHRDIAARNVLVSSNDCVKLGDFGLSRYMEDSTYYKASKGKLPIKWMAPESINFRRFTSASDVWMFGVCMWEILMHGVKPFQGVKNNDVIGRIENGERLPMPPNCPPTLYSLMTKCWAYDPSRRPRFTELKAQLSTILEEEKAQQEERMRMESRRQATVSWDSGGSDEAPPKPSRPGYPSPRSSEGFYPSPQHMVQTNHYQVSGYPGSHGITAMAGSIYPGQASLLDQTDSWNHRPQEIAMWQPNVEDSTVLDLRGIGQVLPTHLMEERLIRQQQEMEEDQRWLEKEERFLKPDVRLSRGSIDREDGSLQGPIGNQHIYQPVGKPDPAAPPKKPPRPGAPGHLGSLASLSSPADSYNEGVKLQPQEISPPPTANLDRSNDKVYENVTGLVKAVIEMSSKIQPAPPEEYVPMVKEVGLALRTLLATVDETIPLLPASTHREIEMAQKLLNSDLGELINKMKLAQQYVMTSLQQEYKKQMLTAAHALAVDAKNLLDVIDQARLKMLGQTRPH", "assay": "HTRF kinase enzyme assay", "assay_type": "biochemical", "settings": "ATP at Km", "method": "Homogeneous time-resolved fluorescence (HTRF) assay was performed to analyze kinase enzyme activity and compound potency using HTRF ® KinEASE ^TM-TK kit (Cisbio Bioassays, Shanghai, China). […] The resulted solutions were briefly mixed, centrifuged and incubated for 5 min. Finally, 2.5 μL of 4× ATP/TK peptide (ATP at K m for each kinase) solution was added to the reaction system to initiate the reaction. The enzymatic reaction was carried out for 60-120 min at 23°C, then terminated by addition of 5 μL of detection solution containing TK antibody-cryptate and 5 μL of Streptravidin-XL-665. The mixture was incubated for additional 1 h at 23°C. The fluorescent signals were measured with an EnVision multilabel plate reader (PerkinElmer). IC 50 values of the compounds were calculated using the GraFit software (Version 6.0) and presented as the mean of three independent experiments performed in duplicate."}, "[2]": {"tested_on": "phosphorylation of FAK at Tyr397", "assay": "Western blot of FAK phosphorylation in MCF-7 cells", "assay_type": "cell-based", "settings": "MCF-7, 1 h treatment", "procedure": "(§1) Equal amounts of cell lysates were loaded onto 10% SDS-PAGE gel and separated by electrophoresis. Separated proteins were then electro-transferred onto polyvinylidene fluoride (PVDF) membranes (Millipore, Bedford, USA). After being blocked with Tris-buffered saline containing 0.1% Tween-20 (TBST) and 5% bovine serum albumin (BSA), the membranes were incubated with primary antibodies at room temperature for 2 hours or at 4°C, then washed with TBST, followed by treatment with horseradish peroxidase (HRP)-conjugated goat anti-rabbit IgG secondary antibody at room temperature for another 1 h. The targeted protein bands were visualized using an enhanced chemiluminescence (ECL) plus system (Thermo Fisher Scientific). Primary antibodies against phospho-FAK (3283, 1:1000 dilution), phospho-ERK (4377, 1:2000 dilution), phospho-AKT (4060, 1:2000 dilution), FAK (3285, 1:1000 dilution), AKT (6703, 1:1000 dilution) and β-Actin (5125, 1:10,0000 dilution) were purchased from Cell Signaling Technology (Beverly, USA) and the HRP-conjugated goat anti-rabbit IgG (ZDR-5306, 1:10,000 dilution) was purchased from Jackson (West Grove, USA ).\n(§2) Cells were cultured in 6-well plates and treated with the indicated concentrations of SY-707 for 1 h before stimulation with or without 100 ng/mL IGF1 for 10 min. Control cells received the drug vehicle with 0.1% DMSO. […]"}, "T47D cells [3]": {"tested_on": "T47D cells", "assay": "Cell adhesion assay", "assay_type": "cell-based", "settings": "24 h pretreatment, dose-dependent", "procedure": "(§3) MCF-7 and T47D cells were plated in 6-well plates and pretreated with different concentrations of PF-562271 or SY-707 for 24 h, and then trypsinized, washed and resuspended in culture medium. Cells were added into each well and incubated for 6 h. Non-adherent cells were collected by washing with PBS and counted."}, "MCF-7 cells [4]": {"tested_on": "MCF-7 cells", "assay": "Cell adhesion assay", "assay_type": "cell-based", "settings": "MCF-7, 24 h pretreatment, dose-dependent", "procedure": "as §3"}, "[5]": {"tested_on": "phosphorylation of FAK at Tyr397 in T47D tumor tissue", "assay": "Pharmacokinetics/pharmacodynamics study in T47D xenograft model", "assay_type": "in vivo, nude mice", "procedure": "Figure5 Anti-tumor activities of SY-707 in breast cancer xenograftsXenograft tumors were established by inoculating T47D (A, B, C) cells or 4T1 (D) cells into the nude mice. Oral administration of SY-707 alone or combined with paclitaxel was initiated when tumors reached an average of approximately 150–300 mm3 in volume and continued through the experiment. Tumor volume was measured on the indicated days with the mean tumor volume±SD indicated for each group (10 mice/group). Each treatment group was compared to vehicle group with t-test. *P<0.05, **P<0.01. (B) The tumor tissues were harvested at 2 h after the last dosage of SY-707, compound levels in tumor tissues or plasma and the phosphorylation levels of FAK were analyzed.\nTo explore the relationship between the in vivo anti-tumor growth activities and the inhibition on FAK signaling, pharmacokinetics/pharmacodynamics studies were performed in T47D xenograft model."}, "[6]": {"tested_on": "phosphorylation of FAK at Tyr397", "assay": "Western blot of FAK phosphorylation in T47D cells", "assay_type": "cell-based", "settings": "1 h treatment", "procedure": "as §1, §2"}, "T47D cells [7]": {"tested_on": "T47D cells", "assay": "Western blot for cleaved PARP", "assay_type": "cell-based", "settings": "various concentrations, 24 h", "procedure": "as §1\n(§4) Cells were cultured and treated with SY-707 under the indicated concentrations (0.01, 0.1 and 1 μM respectively) for 24 h, then stained with Annexin-V and 7-AAD for cell apoptosis analysis by Guava flow cytometry."}, "MCF-7 cells [8]": {"tested_on": "MCF-7 cells", "assay": "Western blot for cleaved PARP", "assay_type": "cell-based", "settings": "MCF-7, various concentrations, 24 h", "procedure": "as §1, §4"}, "Pharmacokinetic study": {"assay": "Pharmacokinetic study", "assay_type": "in vivo, beagle dogs", "settings": "serum, Beagle dog, 5 mg/kg PO; for CL/F: read-out: Cl_F_obs (converted); for MRT inf: read-out: MRT INF_obs", "procedure": "Female SD rats (5-6 weeks old) or beagle dogs were administrated with SY-707 at a single dose of 5 mg/kg, and blood samples were taken sequentially from 2 min to 24 h after compound administration. […] The serum samples were collected by centrifugation and stored at –80 °C. Compound concentrations in the sample serums were further analyzed with an API-4000 LC-MS/MS system (Applied Biosystem, Foster City, USA), and pharmacokinetic parameters ( T 1/2, T max, C max, AUC 0-INF, Cl_F_obs, MRT INF_obs, and F(%)) were calcuated using the WinNonlin software (version 6.2; WinNonlin Professional, Pharsight, USA)."}},
  "note": "Where two headings read alike, the source gives them in different places.",
  "data": [
    {"smiles": "COc1cc(N2CCC(N3CCN(C)CC3)CC2)ccc1Nc1nc2c(c(Nc3ccccc3S(=O)(=O)NC(C)C)n1)CCN2", "note": "[SY-707, N-isopropyl-2-((2-((2-methoxy-4-(4-(4-methylpiperazin-1-yl)piperidin-1-yl)phenyl)amino)-6,7-dihydro-5H-pyrrolo[2,3-d]pyrimidin-4-yl)amino)benzenesulfonamide]", "values": [
      {"measurement": "IC50", "setting": "[1]", "result": "1 to 10", "unit": "nM"},
      {"measurement": "IC50", "setting": "FAK", "result": "1.6 ± 0.5", "unit": "nM"},
      {"measurement": "phosphorylation of FAK at Tyr397", "setting": "[2]", "result": "dose-dependently suppressed"},
      {"measurement": "cell adhesion", "setting": "T47D cells [3]", "result": "characteristically repressed"},
      {"measurement": "cell adhesion", "setting": "MCF-7 cells [4]", "result": "characteristically repressed"},
      {"measurement": "concentration in tumor samples compared to plasma", "setting": "[5]; 2 h after last dosage", "result": "higher concentrations of SY-707 were also detected in tumor samples"},
      {"measurement": "phosphorylation level of FAK at Tyr397 in tumor", "setting": "[5]; tumor harvested 2 h after last dosage, vs control group", "result": "significantly decreased"},
      {"measurement": "phosphorylation of FAK at Tyr397", "setting": "[6]", "result": "dose-dependently suppressed"},
      {"measurement": "cleaved PARP", "setting": "T47D cells [7]", "result": "markedly detected"},
      {"measurement": "cleaved PARP", "setting": "MCF-7 cells [8]", "result": "markedly detected"},
      {"measurement": "AUC(0-inf)", "setting": "Pharmacokinetic study; both sexes, All", "result": 459, "unit": "ng·h/mL"},
      {"measurement": "Cmax", "setting": "Pharmacokinetic study; both sexes, All", "result": 36, "unit": "ng/mL"},
      {"measurement": "Tmax", "setting": "Pharmacokinetic study; both sexes, All", "result": 2.83, "unit": "h"},
      {"measurement": "bioavailability", "setting": "Pharmacokinetic study; both sexes, All", "result": 21.1, "unit": "%"},
      {"measurement": "half-life", "setting": "Pharmacokinetic study; both sexes, All", "result": 9.72, "unit": "h"},
      {"measurement": "CL/F", "setting": "Pharmacokinetic study; both sexes, All", "result": 195, "unit": "mL/min/kg"},
      {"measurement": "MRT inf", "setting": "Pharmacokinetic study; both sexes, All", "result": 13.6, "unit": "h"},
      {"measurement": "AUC(0-inf)", "setting": "Pharmacokinetic study; Female", "result": 438, "unit": "ng·h/mL"},
      {"measurement": "Cmax", "setting": "Pharmacokinetic study; Female", "result": 34.2, "unit": "ng/mL"},
      {"measurement": "Tmax", "setting": "Pharmacokinetic study; Female", "result": 2.67, "unit": "h"},
      {"measurement": "bioavailability", "setting": "Pharmacokinetic study; Female", "result": 18.8, "unit": "%"},
      {"measurement": "half-life", "setting": "Pharmacokinetic study; Female", "result": 10.1, "unit": "h"},
      {"measurement": "CL/F", "setting": "Pharmacokinetic study; Female", "result": 202, "unit": "mL/min/kg"},
      {"measurement": "MRT inf", "setting": "Pharmacokinetic study; Female", "result": 13.7, "unit": "h"},
      {"measurement": "AUC(0-inf)", "setting": "Pharmacokinetic study; Male", "result": 479, "unit": "ng·h/mL"},
      {"measurement": "Cmax", "setting": "Pharmacokinetic study; Male", "result": 37.8, "unit": "ng/mL"},
      {"measurement": "Tmax", "setting": "Pharmacokinetic study; Male", "result": 3, "unit": "h"},
      {"measurement": "bioavailability", "setting": "Pharmacokinetic study; Male", "result": 23.8, "unit": "%"},
      {"measurement": "half-life", "setting": "Pharmacokinetic study; Male", "result": 9.33, "unit": "h"},
      {"measurement": "CL/F", "setting": "Pharmacokinetic study; Male", "result": 188, "unit": "mL/min/kg"},
      {"measurement": "MRT inf", "setting": "Pharmacokinetic study; Male", "result": 13.6, "unit": "h"}
    ]}
  ]
}
